≈ marks a conversion by molar mass, not a printed value. Calls of active or inactive are those of the source. The calls are words filed in the database; no cut-off is given here.
What was measured:
Assay type in all cases: functional
Staphylococcus aureus [1] = assay: Antimicrobial activity against linezolid-susceptible Staphylococcus aureus by CLSI method
Staphylococcus aureus [2] = assay: Antimicrobial activity against linezolid-susceptible Staphylococcus aureus assessed as percent susceptible strain by CLSI method
Staphylococcus aureus [3] = assay: Antimicrobial activity against oxacillin-susceptible Staphylococcus aureus by CLSI method
Staphylococcus aureus [4] = assay: Antimicrobial activity against oxacillin-susceptible Staphylococcus aureus assessed as percent susceptible strain by CLSI method
Staphylococcus aureus [5] = assay: Antimicrobial activity against oxacillin-resistant Staphylococcus aureus by CLSI method
Staphylococcus aureus [6] = assay: Antimicrobial activity against oxacillin-resistant Staphylococcus aureus assessed as percent susceptible strain by CLSI method
Staphylococcus aureus [7] = assay: Antimicrobial activity against linezolid-resistant Staphylococcus aureus by CLSI method
Staphylococcus aureus [8] = assay: Antimicrobial activity against linezolid-resistant Staphylococcus aureus assessed as percent susceptible strain by CLSI method
Staphylococcus [9] = assay: Antimicrobial activity against linezolid-susceptible coagulase-negative Staphylococcus by CLSI method
Staphylococcus [10] = assay: Antimicrobial activity against linezolid-susceptible coagulase-negative Staphylococcus assessed as percent susceptible strain by CLSI method
Staphylococcus [11] = assay: Antimicrobial activity against oxacillin-susceptible coagulase-negative Staphylococcus aureus by CLSI method
[12] = Antimicrobial activity against oxacillin-susceptible coagulase-negative Staphylococcus aureus assessed as percent susceptible strain by CLSI method
Staphylococcus [13] = assay: Antimicrobial activity against oxacillin-resistant coagulase-negative Staphylococcus aureus by CLSI method
Staphylococcus [14] = assay: Antimicrobial activity against linezolid-resistant coagulase-negative Staphylococcus by CLSI method
Staphylococcus [15] = assay: Antimicrobial activity against linezolid-resistant coagulase-negative Staphylococcus assessed as percent susceptible strain by CLSI method
Staphylococcus [16] = assay: Antimicrobial activity against Linezolid and methicillin-resistant coagulase-negative Staphylococcus by CLSI method
Staphylococcus aureus [17] = assay: Antimicrobial activity against linezolid-resistant Staphylococcus aureus assessed as inhibition of microbial growth at 0.5 ug/ml by CLSI method
Staphylococcus aureus [18] = assay: Antimicrobial activity against oxacillin-resistant Staphylococcus aureus assessed as inhibition of microbial growth at =< 0.25 ug/ml by CLSI method
Staphylococcus aureus [19] = assay: Antimicrobial activity against oxacillin-resistant Staphylococcus aureus assessed as inhibition of microbial growth at 0.5 ug/ml by CLSI method
Staphylococcus aureus [20] = assay: Antimicrobial activity against linezolid-susceptible Staphylococcus aureus assessed as inhibition of microbial growth at =< 0.25 ug/ml by CLSI method
Staphylococcus aureus [21] = assay: Antimicrobial activity against linezolid-susceptible Staphylococcus aureus assessed as inhibition of microbial growth at 0.5 ug/ml by CLSI method
Staphylococcus aureus [22] = assay: Antimicrobial activity against oxacillin-susceptible Staphylococcus aureus assessed as inhibition of microbial growth at =< 0.25 ug/ml by CLSI method
Staphylococcus aureus [23] = assay: Antimicrobial activity against oxacillin-susceptible Staphylococcus aureus assessed as inhibition of microbial growth at 0.5 ug/ml by CLSI method
Staphylococcus [24] = assay: Antimicrobial activity against linezolid-susceptible coagulase-negative Staphylococcus assessed as inhibition of microbial growth at =< 0.25 ug/ml by CLSI method
Staphylococcus [25] = assay: Antimicrobial activity against linezolid-susceptible coagulase-negative Staphylococcus assessed as inhibition of microbial growth at 0.5 ug/ml by CLSI method
Staphylococcus aureus [26] = assay: Antimicrobial activity against oxacillin-susceptible coagulase-negative Staphylococcus aureus assessed as inhibition of microbial growth at =< 0.25 ug/ml by CLSI method
Staphylococcus [27] = assay: Antimicrobial activity against linezolid-resistant coagulase-negative Staphylococcus assessed as inhibition of microbial growth at =< 0.25 ug/ml by CLSI method
Staphylococcus [28] = assay: Antimicrobial activity against linezolid-resistant coagulase-negative Staphylococcus assessed as inhibition of microbial growth at 0.5 ug/ml by CLSI method
Staphylococcus [29] = assay: Antimicrobial activity against linezolid-resistant coagulase-negative Staphylococcus assessed as inhibition of microbial growth at 1 ug/ml by CLSI method
Staphylococcus [30] = assay: Antimicrobial activity against linezolid-resistant coagulase-negative Staphylococcus assessed as inhibition of microbial growth at 2 ug/ml by CLSI method
Staphylococcus [31] = assay: Antimicrobial activity against linezolid-resistant coagulase-negative Staphylococcus assessed as inhibition of microbial growth at 4 ug/ml by CLSI method
Staphylococcus aureus [32] = assay: Ratio of Linezolid MIC90 to compound MIC90 for Linezolid-susceptible Staphylococcus aureus
Staphylococcus aureus [33] = assay: Ratio of Linezolid MIC50 to compound MIC50 for Linezolid-susceptible Staphylococcus aureus
Staphylococcus aureus [34] = assay: Antimicrobial activity against methicillin-resistant Staphylococcus aureus by CLSI method
Staphylococcus [35] = assay: Antimicrobial activity against teicoplanin and methicillin-resistant coagulase-negative Staphylococcus by CLSI method
Staphylococcus aureus [36] = assay: Ratio of Linezolid to compound activity for cfr-expressing methicillin-resistant Staphylococcus aureus

| Compound | MIC50 (Staphylococcus aureus [1]) | MIC90 (Staphylococcus aureus [1]) | Activity (Staphylococcus aureus [2]) | MIC50 (Staphylococcus aureus [3]) | MIC90 (Staphylococcus aureus [3]) | Activity (Staphylococcus aureus [4]) | MIC50 (Staphylococcus aureus [5]) | MIC90 (Staphylococcus aureus [5]) | MIC50 (Staphylococcus aureus [7]) | MIC50 (Staphylococcus [9]) | MIC90 (Staphylococcus [9]) | Activity (Staphylococcus [10]) | MIC50 (Staphylococcus [11]) | MIC90 (Staphylococcus [11]) | Activity [12] | MIC50 (Staphylococcus [13]) | MIC90 (Staphylococcus [13]) | MIC50 (Staphylococcus [14]) | Activity (Staphylococcus [15]) | MIC (Staphylococcus [16]) | further results |
| --- | --- | --- | --- | --- | --- | --- | --- | --- | --- | --- | --- | --- | --- | --- | --- | --- | --- | --- | --- | --- | --- |
| CN[C@H](CC(C)C)C(=O)N[C@H]1C(=O)N[C@@H](CC(N)=O)C(=O)N[C@H]2C(=O)N[C@H]3C(=O)N[C@H](C(=O)N[C@H](C(=O)O)c4cc(O)cc(O)c4-c4cc3ccc4O)[C@H](O)c3ccc(c(Cl)c3)Oc3cc2cc(c3O[C@@H]2O[C@H](CO)[C@@H](O)[C@H](O)[C@H]2O[C@H]2C[C@](C)(N)[C@H](O)[C@H](C)O2)Oc2ccc(cc2Cl)[C@H]1O [VANCOMYCIN] | 1 mg/L (≈ 0.69 µM) | 1 mg/L (≈ 0.69 µM) | 99.6% | 1 mg/L (≈ 0.69 µM) | 1 mg/L (≈ 0.69 µM) | 100% | 1 mg/L (≈ 0.69 µM) | 2 mg/L (≈ 1.38 µM) | 2 mg/L (≈ 1.38 µM) | 2 mg/L (≈ 1.38 µM) | 2 mg/L (≈ 1.38 µM) | 100% | 2 mg/L (≈ 1.38 µM) | 2 mg/L (≈ 1.38 µM) | 100% | 2 mg/L (≈ 1.38 µM) | 2 mg/L (≈ 1.38 µM) | 2 mg/L (≈ 1.38 µM) | 100% | 2 mg/L (≈ 1.38 µM) | Activity (Staphylococcus aureus [6]): 99.2%; Activity (Staphylococcus aureus [8]): 100% |
| Cn1nnc(-c2ccc(-c3ccc(N4C[C@H](CO)OC4=O)cc3F)cn2)n1 [TEDIZOLID] | 0.25 mg/L (≈ 0.675 µM) | 0.5 mg/L (≈ 1.35 µM) |  | 0.25 mg/L (≈ 0.675 µM) | 0.25 mg/L (≈ 0.675 µM) |  | 0.25 mg/L (≈ 0.675 µM) | 0.5 mg/L (≈ 1.35 µM) | 0.5 mg/L (≈ 1.35 µM) | 0.25 mg/L (≈ 0.675 µM) | 0.25 mg/L (≈ 0.675 µM) |  | 0.25 mg/L (≈ 0.675 µM) | 0.25 mg/L (≈ 0.675 µM) |  | 0.125 mg/L (≈ 0.338 µM) | 0.25 mg/L (≈ 0.675 µM) | 2 mg/L (≈ 5.4 µM) |  | 0.25 mg/L (≈ 0.675 µM) | inhibition at 0.5 µg/mL (Staphylococcus aureus [17]): 100%; inhibition (INH) (Staphylococcus aureus [18]): 70%; inhibition at 0.5 µg/mL (Staphylococcus aureus [19]): 100%; inhibition (INH) (Staphylococcus aureus [20]): 83.1%; inhibition at 0.5 µg/mL (Staphylococcus aureus [21]): 100%; inhibition (INH) (Staphylococcus aureus [22]): 99%; inhibition at 0.5 µg/mL (Staphylococcus aureus [23]): 100%; inhibition (INH) (Staphylococcus [24]): 99.5%; inhibition at 0.5 µg/mL (Staphylococcus [25]): 100%; inhibition (INH) (Staphylococcus aureus [26]): 100%; inhibition (INH) (Staphylococcus [27]): 20%; inhibition at 0.5 µg/mL (Staphylococcus [28]): 20%; inhibition at 1 µg/mL (Staphylococcus [29]): 20%; inhibition at 2 µg/mL (Staphylococcus [30]): 80%; inhibition at 4 µg/mL (Staphylococcus [31]): 100%; Ratio (Staphylococcus aureus [32]): 4; Ratio (Staphylococcus aureus [33]): 8; MIC (Staphylococcus aureus [34]): 0.5 mg/L (≈ 1.35 µM); MIC (Staphylococcus [35]): 0.25 mg/L (≈ 0.675 µM); Ratio (Staphylococcus aureus [36]): 32 |
| CC(=O)N[C@@H]1[C@H](Oc2c3cc4cc2Oc2ccc(cc2Cl)[C@@H](O[C@@H]2O[C@@H](CO)[C@@H](O)[C@H](O)[C@@H]2NC(C)=O)[C@@H]2NC(=O)[C@H](NC(=O)[C@@H]4NC(=O)[C@H]4NC(=O)[C@@H](Cc5ccc(c(Cl)c5)O3)NC(=O)[C@H](N)c3ccc(O)c(c3)Oc3cc(O)cc4c3)c3ccc(O)c(c3)-c3c(O[C@H]4O[C@H](CO)[C@@H](O)[C@@H](O)[C@@H]4O)cc(O)cc3[C@@H](C(=O)O)NC2=O)O[C@@H](CO)[C@@H](O)[C@@H]1O |  | 1 mg/L (≈ 0.566 µM) | 100% | ≤ 0.5 mg/L | 1 mg/L (≈ 0.566 µM) | 100% |  | 1 mg/L (≈ 0.566 µM) | 1 mg/L (≈ 0.566 µM) | 2 mg/L (≈ 1.13 µM) | 8 mg/L (≈ 4.53 µM) | 94.5% | 2 mg/L (≈ 1.13 µM) | 4 mg/L (≈ 2.26 µM) | 100% | 2 mg/L (≈ 1.13 µM) | 8 mg/L (≈ 4.53 µM) | 4 mg/L (≈ 2.26 µM) | 80% |  | Activity (Staphylococcus aureus [34]): Active |
